EC50, Emax and CRF1/CRF2 ratio data for five compounds are collected here from patent US12679878B2, “CRF2 receptor agonists and their use in therapy” (SANOFI, priority 2020, dated 2026).

Starred links: 1 amine or outer side, 2 acyl side, 3 side chain; linkers in the order of their positions; H or OH if unused. Non-standard residues stand in square brackets, D forms with d. Residues, ends and D or L forms follow the SMILES beside them. Groups on a side chain read outwards from the residue. *: point of attachment. C16 diacid = O=C(O)CCCCCCCCCCCCCCC(=O)*; γGlu = O=C(O)[C@H](CCC(=O)[*:2])N[*:1]; Palmitoyl = CCCCCCCCCCCCCCCC(=O)*; AEEA = NCCOCCOCC(=O)O; Aib = CC(C)(N)C(=O)O

What is called EC50 is the concentration giving half of the maximal effect. A word on the Emax: it is the maximal effect, on the per cent scale that the assay sets.

One experiment addresses T1, human CRF2α receptor (Homo sapiens, UniProt Q13324).
T1 construct: expressed in transfected cells; host or cells: TeloHEAC
T1 sequence (Q13324 1-411): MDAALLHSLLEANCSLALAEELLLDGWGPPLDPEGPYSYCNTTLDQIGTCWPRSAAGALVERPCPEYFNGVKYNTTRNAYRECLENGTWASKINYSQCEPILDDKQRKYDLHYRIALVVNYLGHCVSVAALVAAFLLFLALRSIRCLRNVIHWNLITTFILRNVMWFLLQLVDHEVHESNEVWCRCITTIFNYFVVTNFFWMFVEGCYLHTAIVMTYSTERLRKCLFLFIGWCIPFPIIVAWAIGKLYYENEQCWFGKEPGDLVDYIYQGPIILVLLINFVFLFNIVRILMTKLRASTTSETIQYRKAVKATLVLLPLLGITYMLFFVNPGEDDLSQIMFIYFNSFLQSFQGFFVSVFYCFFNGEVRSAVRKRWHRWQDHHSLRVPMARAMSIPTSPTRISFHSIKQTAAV
Description: cAMP agonism at human CRF2α receptor in TeloHEAC cells, FA modified peptides (Example 19.9). The format is cell-based. To be noted: 0% HSA, relative to urocortin 2. In outline:
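Efficacy and EC50 are referenced to 100 nM urocortin 2 as 100%, with cAMP measured as the 665/620 nm HTRF ratio after 1 h at room temperature. Compounds (0.5 mM DMSO stock, 16 twofold dilutions) acted 30 min at 37 °C on CRF2α-expressing TeloHEAC cells, buffer containing IBMX and 0% or 0.2% HSA.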

Another experiment concerns the target T2, CRF1R receptor (Homo sapiens, UniProt P34998).
T2 construct: host or cells: CHO-K1 clone 2
T2 sequence (P34998 24-415): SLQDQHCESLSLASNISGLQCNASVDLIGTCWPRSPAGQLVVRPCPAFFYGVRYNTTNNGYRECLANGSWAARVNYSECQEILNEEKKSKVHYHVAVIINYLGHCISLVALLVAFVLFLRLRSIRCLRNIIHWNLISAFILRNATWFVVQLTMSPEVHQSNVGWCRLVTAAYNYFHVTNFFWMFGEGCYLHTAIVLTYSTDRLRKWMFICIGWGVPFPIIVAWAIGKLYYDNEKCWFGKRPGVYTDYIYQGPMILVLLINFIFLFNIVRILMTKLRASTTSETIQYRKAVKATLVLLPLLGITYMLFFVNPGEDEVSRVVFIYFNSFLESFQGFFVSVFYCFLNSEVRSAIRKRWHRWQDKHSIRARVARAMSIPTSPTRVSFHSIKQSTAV
Description: cAMP activity at anti-target CRF1R, CHO-K1 cell line clone 2 (Example 19.10). The format is cell-based. To be noted: for EC50: 0% HSA, read-out: EC50 [nM] 0% HSA; for EC50 / Emax: CRF1R CHO-K1 clone 2; for Emax: 100% = Sauvagine at 100 nM; for CRF1/CRF2 ratio: ratio of CRF1 EC50 to CRF2 EC50. An outline of the steps: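 The cAMP read-out used the same protocol as the previous assay, except that Sauvagine at 100 nM set the 100% activation control. Cells were CHO-K1 clone 2 overexpressing CRF1R, cultured in F12 medium with 10% FBS and G418 and stored frozen until use.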

Take `CC[C@H](C)[C@H](N)C(=O)N[C@H](C(=O)N[C@@H](CC(C)C)C(=O)N[C@@H](CO)C(=O)N[C@@H](CC(C)C)C(=O)N[C@@H](CC(=O)O)C(=O)N[C@@H](C(=O)N1CCC[C@H]1C(=O)N[C@H](C(=O)NCC(=O)N[C@@H](CC(C)C)C(=O)N[C@@H](CCCCNC(=O)COCCOCCNC(=O)COCCOCCNC(=O)CC[C@H](NC(=O)CCCCCCCCCCCCCCC(=O)O)C(=O)O)C(=O)N[C@@H](CCC(N)=O)C(=O)N[C@H](C(=O)N[C@@H](CC(C)C)C(=O)N[C@@H](CC(C)C)C(=O)N[C@@H](CCCCN)C(=O)N[C@@H](CCC(N)=O)C(=O)N[C@@H](CCC(=O)O)C(=O)N[C@@H](CCCNC(=N)N)C(=O)N[C@@H](CCC(N)=O)C(=O)N[C@@H](CCCCN)C(=O)N[C@@H](CCCCN)C(=O)NC(C)(C)C(=O)N[C@@H](CCCNC(=N)N)C(=O)N[C@@H](CCC(=O)O)C(=O)N[C@@H](CCC(N)=O)C(=O)N[C@@H](C)C(=O)N[C@@H](CCC(=O)O)C(=O)N[C@H](C(=O)N[C@@H](CC(N)=O)C(=O)N[C@@H](CCCCN)C(=O)N[C@@H](CCC(N)=O)C(=O)N[C@H](C(=O)N[C@@H](CC(C)C)C(=O)N[C@@H](C)C(=O)N[C@@H](CCC(N)=O)C(=O)N[C@H](C(N)=O)C(C)C)[C@@H](C)CC)[C@@H](C)O)[C@@H](C)CC)[C@@H](C)CC)C(C)C)C(C)C` [compound 202] (H-IVLSLD[dV]PIGLK([AEEA-AEEA-γGlu-C16 diacid])QILLKQERQKK[Aib]REQAETNKQILAQV-NH2; N-terminus assumed): the EC50 at human CRF2α receptor stood at 0.87 nM. At CRF1R receptor, the EC50 is above 100 nM and the Emax amounted to 5.4%.

`CC[C@H](C)[C@H](N)C(=O)N[C@H](C(=O)N[C@@H](CC(C)C)C(=O)N[C@@H](CO)C(=O)N[C@@H](CC(C)C)C(=O)N[C@@H](CC(=O)O)C(=O)N[C@@H](C(=O)N1CCC[C@H]1C(=O)N[C@H](C(=O)NCC(=O)N[C@@H](CC(C)C)C(=O)N[C@@H](CCCCNC(=O)COCCOCCNC(=O)COCCOCCNC(=O)CC[C@H](NC(=O)CC[C@H](NC(=O)CCCCCCCCCCCCCCC(=O)O)C(=O)O)C(=O)O)C(=O)N[C@@H](CCC(N)=O)C(=O)N[C@H](C(=O)N[C@@H](CC(C)C)C(=O)N[C@@H](CC(C)C)C(=O)N[C@@H](CCCCN)C(=O)N[C@@H](CCC(N)=O)C(=O)N[C@@H](CCC(=O)O)C(=O)N[C@@H](CCCNC(=N)N)C(=O)N[C@@H](CCC(N)=O)C(=O)N[C@@H](CCCCN)C(=O)N[C@@H](CCCCN)C(=O)NC(C)(C)C(=O)N[C@@H](CCCNC(=N)N)C(=O)N[C@@H](CCC(=O)O)C(=O)N[C@@H](CCC(N)=O)C(=O)N[C@@H](C)C(=O)N[C@@H](CCC(=O)O)C(=O)N[C@H](C(=O)N[C@@H](CC(N)=O)C(=O)N[C@@H](CCCCN)C(=O)N[C@@H](CCC(N)=O)C(=O)N[C@H](C(=O)N[C@@H](CC(C)C)C(=O)N[C@@H](C)C(=O)N[C@@H](CCC(N)=O)C(=O)N[C@H](C(N)=O)C(C)C)[C@@H](C)CC)[C@@H](C)O)[C@@H](C)CC)[C@@H](C)CC)C(C)C)C(C)C` [compound 203] (H-IVLSLD[dV]PIGLK([AEEA-AEEA-γGlu-γGlu-C16 diacid])QILLKQERQKK[Aib]REQAETNKQILAQV-NH2; N-terminus assumed) displayed an EC50 at human CRF2α receptor of 4.7 nM. For the same compound, at CRF1R receptor, the concentration for a half-maximal effect (EC50) was above 100 nM and the Emax amounted to 4.7%.

At human CRF2α receptor, `CCCCCCCCCCCCCCCC(=O)N[C@@H](CCC(=O)NCCCC[C@H](NC(=O)[C@H](CC(C)C)NC(=O)[C@H](CCCCN)NC(=O)[C@@H](NC(=O)[C@@H]1CCCN1C(=O)[C@H](NC(=O)[C@H](CC(=O)O)NC(=O)[C@H](CC(C)C)NC(=O)[C@H](CO)NC(=O)[C@H](CC(C)C)NC(=O)[C@@H](NC(=O)[C@@H](N)[C@@H](C)CC)C(C)C)C(C)C)[C@@H](C)CC)C(=O)N[C@@H](CCC(N)=O)C(=O)N[C@H](C(=O)N[C@@H](CC(C)C)C(=O)N[C@@H](CC(C)C)C(=O)N[C@@H](CCCCN)C(=O)N[C@@H](CCC(N)=O)C(=O)N[C@@H](CCC(=O)O)C(=O)N[C@@H](CCCNC(=N)N)C(=O)N[C@@H](CCC(N)=O)C(=O)N[C@@H](CCCCN)C(=O)NC(C)(C)C(=O)N[C@@H](CCC(N)=O)C(=O)N[C@@H](CCCNC(=N)N)C(=O)N[C@@H](CCC(=O)O)C(=O)N[C@@H](CCC(N)=O)C(=O)N[C@@H](C)C(=O)N[C@@H](CCC(=O)O)C(=O)N[C@@H](CCCCN)C(=O)N[C@@H](CC(N)=O)C(=O)N[C@@H](CCCCN)C(=O)N[C@@H](CCC(N)=O)C(=O)N[C@H](C(=O)N[C@@H](CC(C)C)C(=O)N[C@@H](C)C(=O)N[C@@H](CCC(N)=O)C(=O)N[C@H](C(N)=O)C(C)C)[C@@H](C)CC)[C@@H](C)CC)C(=O)O` [compound 204] (H-IVLSLD[dV]PIKLK([γGlu-Palmitoyl])QILLKQERQK[Aib]QREQAEKNKQILAQV-NH2) showed an EC50 of 0.14 nM. For the same compound, the CRF1/CRF2 ratio at CRF1R receptor is 3.

The compound `CCCCCCCCCCCCCCCC(=O)N[C@@H](CCC(=O)NCCCC[C@H](NC(=O)[C@H](CC(C)C)NC(=O)CNC(=O)[C@@H](NC(=O)[C@@H]1CCCN1C(=O)[C@H](NC(=O)[C@H](CC(=O)O)NC(=O)[C@H](CC(C)C)NC(=O)[C@H](CO)NC(=O)[C@H](CC(C)C)NC(=O)[C@@H](NC(=O)[C@@H](N)[C@@H](C)CC)C(C)C)C(C)C)[C@@H](C)CC)C(=O)N[C@@H](CCC(N)=O)C(=O)N[C@H](C(=O)N[C@@H](CC(C)C)C(=O)N[C@@H](CC(C)C)C(=O)N[C@@H](CCCCN)C(=O)N[C@@H](CCC(N)=O)C(=O)N[C@@H](CCC(=O)O)C(=O)N[C@@H](CCCNC(=N)N)C(=O)N[C@@H](CCC(N)=O)C(=O)N[C@@H](CCCCN)C(=O)N[C@@H](CCCCN)C(=O)NC(C)(C)C(=O)N[C@@H](CCCNC(=N)N)C(=O)N[C@@H](CCC(=O)O)C(=O)N[C@@H](CCC(N)=O)C(=O)N[C@@H](C)C(=O)N[C@@H](CCC(=O)O)C(=O)N[C@H](C(=O)N[C@@H](CC(N)=O)C(=O)N[C@@H](CCCCN)C(=O)N[C@@H](CCCNC(=N)N)C(=O)N[C@H](C(=O)N[C@@H](CC(C)C)C(=O)N[C@@H](CCC(=O)O)C(=O)N[C@@H](CCCNC(=N)N)C(=O)N[C@H](C(N)=O)C(C)C)[C@@H](C)CC)[C@@H](C)O)[C@@H](C)CC)C(=O)O` [compound 207] (H-IVLSLD[dV]PIGLK([γGlu-Palmitoyl])QILLKQERQKK[Aib]REQAETNKRILERV-NH2; N-terminus assumed) returned an EC50 at human CRF2α receptor of 0.68 nM. The CRF1/CRF2 ratio at CRF1R receptor was determined as 6.

Take `CCCCCCCCCCCCCCCC(=O)N[C@@H](CCC(=O)NCCCC[C@H](NC(=O)[C@H](CC(C)C)NC(=O)[C@H](CCCCN)NC(=O)[C@@H](NC(=O)[C@@H]1CCCN1C(=O)[C@H](NC(=O)[C@H](CC(=O)O)NC(=O)[C@H](CC(C)C)NC(=O)[C@H](CO)NC(=O)[C@H](CC(C)C)NC(=O)[C@@H](NC(=O)[C@@H](N)[C@@H](C)CC)C(C)C)C(C)C)[C@@H](C)CC)C(=O)N[C@@H](CCC(N)=O)C(=O)N[C@H](C(=O)N[C@@H](CC(C)C)C(=O)N[C@@H](CC(C)C)C(=O)N[C@@H](CCCCN)C(=O)N[C@@H](CCC(N)=O)C(=O)N[C@@H](CCC(=O)O)C(=O)N[C@@H](CCCNC(=N)N)C(=O)N[C@@H](CCC(N)=O)C(=O)N[C@@H](CCCCN)C(=O)NC(C)(C)C(=O)N[C@@H](CCC(N)=O)C(=O)N[C@@H](CCCNC(=N)N)C(=O)N[C@@H](CCC(N)=O)C(=O)N[C@@H](CCC(N)=O)C(=O)N[C@@H](C)C(=O)N[C@@H](CCC(=O)O)C(=O)N[C@@H](CCCCN)C(=O)N[C@@H](CC(N)=O)C(=O)N[C@@H](CCCCN)C(=O)N[C@@H](CCC(N)=O)C(=O)N[C@H](C(=O)N[C@@H](CC(C)C)C(=O)N[C@@H](C)C(=O)N[C@@H](CCC(N)=O)C(=O)N[C@H](C(N)=O)C(C)C)[C@@H](C)CC)[C@@H](C)CC)C(=O)O` [compound 208] (H-IVLSLD[dV]PIKLK([γGlu-Palmitoyl])QILLKQERQK[Aib]QRQQAEKNKQILAQV-NH2; N-terminus assumed): it took 0.9 nM to reach a half-maximal effect on human CRF2α receptor (EC50). Also, the CRF1/CRF2 ratio on CRF1R receptor amounted to 2.
